# Test results: patent US12203941B2, “Methods and compositions for diagnosis and prognosis of renal injury and renal failure” (ASTUTE MEDICAL, INC., priority 2013, dated 2025)
# Read-outs that look alike come from different tables or passages of the source.
# Assays:
# [1] = tested on: critically ill patients with either stage I or II Acute Kidney Injury Network (AKIN) criteria; settings: for Urine volume, Hour 1: Hour 1 after FST; for Urine volume, Hour 1 / Urine volume, Hour 2 / Urine volume, Hour 3 / Urine volume, Hour 4 / Urine volume, Hour 5 / Urine volume, Hour 6: mean (s.e.); for Urine volume, Hour 2: Hour 2 after FST; for Urine volume, Hour 3: Hour 3 after FST; for Urine volume, Hour 4: Hour 4 after FST; for Urine volume, Hour 5: Hour 5 after FST; for Urine volume, Hour 6: Hour 6 after FST; for Tolerability / adverse events attributable to the FST: critically ill patients with AKI, well-resuscitated, iv furosemide 1.0 or 1.5 mg/kg, urine output replaced with isotonic fluids when appropriate
# From the text: Replacement fluid was not protocolized in this group of subjects. Demographic, clinical data, urine sediment scores, and outcome data were abstracted from the case report forms.
# Prior to FST urine was collected. […] In order to minimize the risk of hypovolemia, urine output was replaced ml for ml each hour with either Ringers lactate or normal saline for six hours after the FST. The treating team could elect not to replace the volume if net volume loss was considered clinically desirable.
# Urine output was measured hourly for six hours and in total for 24 hours. […] Patients were followed for 14 days or hospital discharge, whichever occurred first. Fractional excretion of sodium was calculated as described in Bagshaw and colleagues. MDRD equation was used to calculate the eGFR as described in Levey and colleagues. Cardiovascular SOFA score and APACHE II score were calculated as previously described.
# patients without AKI = settings: previous investigators; cited from earlier work
structure (smiles),measurement,setting,value
NS(=O)(=O)c1cc(C(=O)O)c(NCc2ccco2)cc1Cl [Furosemide],"Urine volume, Hour 1","[1]; Combined n = 77, furosemide 1.0 or 1.5 mg/kg iv",251 (35.2) ml
same,"Urine volume, Hour 1",[1]; Furosemide Naive n = 29,331 (68.5) ml
same,"Urine volume, Hour 1",[1]; Non-naive N = 48,258 (37.2) ml
same,"Urine volume, Hour 2",[1]; Combined n = 77,296 (35.8) ml
same,"Urine volume, Hour 2",[1]; Furosemide Naive n = 29,348 (66.6) ml
same,"Urine volume, Hour 2",[1]; Non-naive N = 48,264 (40.9) ml
same,"Urine volume, Hour 3",[1]; Combined n = 77,246 (26.6) ml
same,"Urine volume, Hour 3",[1]; Furosemide Naive n = 29,285 (52.1) ml
same,"Urine volume, Hour 3",[1]; Non-naive N = 48,223 (28.6) ml
same,"Urine volume, Hour 4",[1]; Combined n = 77,207 (24.1) ml
same,"Urine volume, Hour 4",[1]; Furosemide Naive n = 29,240 (48.6) ml
same,"Urine volume, Hour 4",[1]; Non-naive N = 48,188 (25.4) ml
same,"Urine volume, Hour 5",[1]; Combined n = 77,175 (18.6) ml
same,"Urine volume, Hour 5",[1]; Furosemide Naive n = 29,204 (35.9) ml
same,"Urine volume, Hour 5",[1]; Non-naive N = 48,157 (22.5) ml
same,"Urine volume, Hour 6",[1]; Combined n = 77,155 (17.4) ml
same,"Urine volume, Hour 6",[1]; Furosemide Naive n = 29,167 (33.6) ml
same,"Urine volume, Hour 6",[1]; Non-naive N = 48,147 (19.6) ml
same,Tolerability / adverse events attributable to the FST,[1],these complications were not observed in this study
same,Tolerability / adverse events attributable to the FST,[1]; listed as furosemide,well tolerated with no episodes of hypotension or any other adverse event deemed attributable to the test
same,Time of maximum urine flow rate (UFR) after FST,[1]; hourly urine output for six hours after iv furosemide,within the first two to three hours
same,Mean UO in response to the challenge,[1]; in 6 hours after FST,over 1.3 liters
same,Time of maximum diuretic effect,patients without AKI,within the first three hours
